Data: the NIST ThermoML archive (doi:10.1021/je060390q)

Assays:
[1] = Maximal bubble pressure
[2] = xn = mol fraction of the nth substance listed; conditions: Maximal bubble pressure

Cc1ccccc1C [1,2-dimethylbenzene]
[1]
Conditions | surface tension liquid-gas [mN/m]
303.15 K | 28.98
308.15 K | 28.43
313.15 K | 27.88
318.15 K | 27.33
323.15 K | 26.78
333.15 K | 25.68
343.15 K | 24.58

Cc1ccccc1C [1,2-dimethylbenzene] + CC(=O)O
surface tension liquid-gas [mN/m], [2]
Conditions | x2 = 0 | x2 = 0.1001 | x2 = 0.2001 | x2 = 0.3002 | x2 = 0.4 | x2 = 0.5 | x2 = 0.6213 | x2 = 0.7001 | x2 = 0.8 | x2 = 0.9
303.15 K | 28.98 | 28.81 | 28.56 | 28.32 | 28.07 | 27.81 | 27.5 | 27.29 | 27.03 | 26.74
308.15 K | 28.43 | 28.26 | 28.03 | 27.78 | 27.54 | 27.29 | 26.98 | 26.78 | 26.5 | 26.24
313.15 K | 27.88 | 27.71 | 27.49 | 27.25 | 27.01 | 26.77 | 26.47 | 26.26 | 25.99 | 25.74
318.15 K | 27.33 | 27.17 | 26.94 | 26.7 | 26.47 | 26.23 | 25.94 | 25.74 | 25.48 | 25.22
323.15 K | 26.78 | 26.62 | 26.4 | 26.17 | 25.95 | 25.71 | 25.42 | 25.22 | 24.97 | 24.72
333.15 K | 25.68 | 25.54 | 25.32 | 25.11 | 24.89 | 24.67 | 24.4 | 24.2 | 23.97 | 23.73
343.15 K | 24.58 | 24.45 | 24.24 | 24.04 | 23.84 | 23.63 | 23.37 | 23.18 | 22.95 | 22.73

Cc1cccc(C)c1 [1,3-dimethylbenzene]
[1]
Conditions | surface tension liquid-gas [mN/m]
303.15 K | 27.58
308.15 K | 27.04
313.15 K | 26.49
318.15 K | 25.94
323.15 K | 25.38
333.15 K | 24.27
343.15 K | 23.18
